Patent publication US20050059745A1, “Antiviral therapy” (priority 1999, published 2005)

Columns and labels:
HIV-1 [1] = conditions: PBMC, FIG. 4
Description: (§1) FIG. 4—Peripheral blood mononuclear cells (PBMC) were isolated from heparinized blood from HIV-1-, HIV-2-, and hepatitis B-seronegative donors and obtained on Ficoll-Hypaque density gradients. Cells were washed twice, stimulated with 5 mg/ml phytohemagglutinin (PHA), and cultured in RPMI-1640 medium supplemented with 5 mM Hepes, 19 mM sodium bicarbonate, 10 mg/mL gentamycin, and 10% heat-inactivated fetal calf serum at a concentration of 2×10^6 cells/ml. After 3 days of incubation stimulated PBMC were recovered from the flasks and infected for 2 hours with (a) HIV-1AT at a multiplicity of infection of 0.001, (b) HIV-1BaL at a multiplicity of infection of 0.006 and (c) HIV-1BaL or HIV-1AT at a multiplicity of infection of 0.01 or 0.001, respectively. HIV-infected and mock-infected PBMC were washed twice to remove unbound virus and cultured for 4 to 7 days in different concentrations of APHS. After 4 and 5 days of incubation samples of culture supernatant were collected and p24-core antigen production was quantified using the enzyme-linked immunosorbent assay (ELISA) system of John Moore.

[2] = tested on: monocyte-derived macrophages (MDM); experiment: MDM viability, MTT cytotoxicity assay; format: cell-based, human; conditions: 4 day incubation
Description: FIG. 3—Monocyte-derived macrophages (MDM) were obtained like described in legend of FIG. 2. […] After a 4 day incubation period, cellular viability was assessed by MTT cytotoxicity assay where viable cells convert MTT into a colored formazan dye that can be measured spectrophotometrically.
Cell viability is assessed by the MTT assay. In short, cells are incubated with MTT 3-(4,5-dimethylthiazol-2-yl)-2,5-diphenyltetrazollumbromide (Sigma) for 2 hours at 37° C. During this time viable cells convert MTT into […] formazan dyes. Afterwards crystals are solubilized with a solution containing isopropanol. The OD of the supernatant is measured at 550 nm.
Monocyte-derived macrophages (MDM) were obtained like described above. […] After a 4 days incubation period cellular viability was assessed by MTT cytotoxicity assay where viable cells convert MTT into a colored formazan dye that can be measured spectrophotometrically.

HIV-1Ba-L [3] = experiment: HIV-1 production by chronically infected MDM, p24 ELISA; format: cell-based; conditions: APHS added 5 days after infection, 2 days incubation (FIG. 6D)
HIV-1Ba-L [4] = experiment: HIV-1Ba-L replication in acutely infected monocyte-derived macrophages, p24 ELISA; format: cell-based; conditions: 30 μM APHS, acutely infected MDM, moi 0.02
Description: Concentrations above 0.3 μM APHS inhibit p24 production. 30 μM APHS inhibits HIV-1 replication by 88%.
Cells are washed twice and monocytes are purified by countercurrent centrifugal elutriation.

HIV-1BaL = HIV-1BaL replication in acutely infected PHA-stimulated PBMC, p24 ELISA; format: cell-based
Description: as §1
Peripheral blood mononuclear cell (PBMC) fractions are isolated from heparinised blood from HIV-1-, HIV-2- and hepatitis B- seronegative donors (Blood-bank, Utrecht, the Netherlands) by Ficoll-Isopaque gradient separation. Cells are washed twice, stimulated with 4 μg/ml phytohemagglutinin (PHA), and cultured in RPMI-1640 medium supplemented with 5 mM Hepes, 19 mM sodium bicarbonate, 10 μg/ml gentamycin, and 10% heat-inactivated fetal calf serum at a concentration of 1×10^6 cells/ml.
(A, B) Peripheral blood mononuclear cells (PBMC) were isolated from heparinized blood from HIV-1-, HIV-2-, and hepatitis B- seronegative donors and obtained on Ficoll-Hypaque density gradients. […] After 2 days of incubation samples of culture supernatant were collected. p24-core antigen production was quantified using the enzyme-linked immunosorbent assay (ELISA) system of John Moore.

HIV-1Ba-L [5] = experiment: HIV-1 production of chronically infected PBMC, p24 ELISA; format: cell-based; conditions: APHS added 5 days after infection, 2 days incubation (FIG. 6B)
Description: (A, B) Peripheral blood mononuclear cells (PBMC) were isolated from heparinized blood from HIV-1-, HIV-2-, and hepatitis B- seronegative donors and obtained on Ficoll-Hypaque density gradients. Cells were washed twice, stimulated with 5 μg/ml phytohemagglutinin (PHA), and cultured in RPMI-1640 medium supplemented with 5 mM Hepes, 19 mM sodium bicarbonate, 10 μg/mL gentamycin, and 10% heat-inactivated fetal calf serum (PBMC culture medium) at a concentration of 2×10^6 cells/ml. After 3 days of incubation stimulated PBMC were recovered from the flasks and infected for 2 hours with HIV-1Ba-L at a multiplicity of infection of 0.01. Afterwards, HIV-infected and mock-infected PBMC were washed twice to remove unbound virus. (A) PBMC were cultured at a density of 6×10^5 cells/well with different concentrations of APHS and after 5 days of incubation samples of culture supernatant were collected. (B) PBMC were cultured in suspension at a concentration of 2×10^6 cells/ml in Teflon flasks in PBMC culture medium. […] After 2 days of incubation samples of culture supernatant were collected. p24-core antigen production was quantified using the enzyme-linked immunosorbent assay (ELISA) system of John Moore. […]

[6] = tested on: drug-resistant HIV strains; conditions: drug-resistant vs sensitive strain
[7] = Toxicity determinations of anti-viral compounds (Table 3); format: cell-based
PBMC = PBMC viability, WST-1 cytotoxicity assay; format: cell-based, human; conditions: 5 days incubation
Description: FIG. 5—PBMC were obtained and stimulated as described in legend of FIG. 4. […] After a 5 days incubation period, cellular viability was assessed by WST-1 cytotoxicity assay where viable cells convert WST-1 into a coloured formazan dye that can be measured spectrophotometrically.
Cell viability is assessed with WST-1 assay. Cells are incubated with the tetrazolium salt WST-1 (4-[3-(4-lodophenyl)-2-(4-nitrophenyl)-2H-5-tetrazolio]-1,3-benzene disulfonate) for 2 hours at 37° C. During this time viable cells convert WST-1 into water-soluble formazan dyes. The OD of the supernatant is measured at 550 nm.

HIV-1 [8] = conditions: Table 3
Description: MDM, and PBMC, were incubated with HIV at a multiplicity of infection of 0.02, and 0.006 or 0.001, respectively. After two hours cells are washed to remove unbound virus and cultured for 4 to 7 days in different concentrations of the drug under investigation. On day 4, 5 and 7, 0.01 ml of supernatant is removed from the culture and virus in culture supernatant is inactivated in a final concentration of 0.05% empigen (Calbiochem-Novabiochem Co., La Jolla, Calif.). The presence of HIV-1 in the inactivated supernatant is monitored by checking for the p24-core antigen using the enzyme-linked immunosorbent assay (ELISA) system of John Moore.

CCCCC#CCSc1ccccc1OC(C)=O [APHS, o-(acetoxy-phenyl)hept-2-ynyl sulfide]
APHS concentrations that inhibit HIV-1 production (HIV-1 [1]): above 1 μM | cytotoxicity (MTT) [2]: None of the tested concentrations of APHS was found to be cytotoxic | inhibition of HIV-1 production by chronically infected MDM (HIV-1Ba-L [3]): does not inhibit | inhibition of HIV-1 replication (HIV-1Ba-L [4]): 88% | inhibition of HIV-1BaL production (HIV-1BaL; 1 μM APHS, PBMC, lower infectivity (FIG. 4c)): 50% | inhibition of HIV-1Ba-L replication (HIV-1BaL; 30 μM APHS, acutely infected PBMC, moi 0.01 (FIG. 6A)): 100% | inhibition of HIV-1BaL replication (HIV-1BaL; PBMC, FIG. 4): 100% | APHS concentrations that inhibit HIV-1Ba-L replication (HIV-1BaL; acutely infected PBMC, moi 0.01, 5 days (FIG. 6A)): above 3 μM | inhibition of HIV-1 production of chronically infected PBMCs (HIV-1Ba-L [5]): does not inhibit | inhibitory activity against drug resistant strains relative to a sensitive strain [6]: two- to four-fold higher | not toxic at [7]: 30 µM | concentrations found to reduce viability (WST-1) (PBMC): ≥ 100 µM | IC50 (HIV-1 [8]): 10 µM

CCCCC#CCSc1ccccc1OCCCC [BPHS]
not toxic at [7]: 30 µM | IC50 (HIV-1 [8]): 40 µM
